Results: ChEMBL document CHEMBL1201862, “PubChem BioAssay data set” (2004)
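Method: 48-hour compound exposure of cells in 96-well plates, five concentrations, linear interpolation of endpoints. The concentration for 50% growth inhibition is given as GI50.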 Active and inactive are the calls of the source. Rule as the data show it: active = GI50 up to about 1.1 µM and inactive = higher.

Assays:
Assay in all cases: NCI-60 cell line screen, 48 h
UACC-62 = tested on: UACC-62
CAKI-1 = tested on: CAKI-1
RXF 393 = tested on: RXF 393
LOX IMVI = tested on: LOX IMVI
NCI-H460 = tested on: NCI-H460
XF498 = tested on: XF498
SK-MEL-5 = tested on: SK-MEL-5
SF-268 = tested on: SF-268
K562 = tested on: K562
A549 = tested on: A549
LXFL 529 = tested on: LXFL 529
OVCAR-8 = tested on: OVCAR-8
RPMI-8226 = tested on: RPMI-8226
UO-31 = tested on: UO-31
M19-MEL = tested on: M19-MEL
NCI-H226 = tested on: NCI-H226
ACHN = tested on: ACHN
SF-539 = tested on: SF-539
SNB-75 = tested on: SNB-75
MOLT-4 = tested on: MOLT-4
M14 = tested on: M14
SN12C = tested on: SN12C
SW-620 = tested on: SW-620
HCC 2998 = tested on: HCC 2998
HOP-62 = tested on: HOP-62
TK-10 = tested on: TK-10
SR = tested on: SR
CCRF-CEM = tested on: CCRF-CEM
NCI-H522 = tested on: NCI-H522
KM12 = tested on: KM12
HCT-15 = tested on: HCT-15
EKVX = tested on: EKVX
DMS-273 = tested on: DMS-273
SK-OV-3 = tested on: SK-OV-3
A498 = tested on: A498
HT-29 = tested on: HT-29
OVCAR-4 = tested on: OVCAR-4
Malme-3M = tested on: Malme-3M
DMS-114 = tested on: DMS-114
SK-MEL-28 = tested on: SK-MEL-28
NCI-H23 = tested on: NCI-H23
HL-60 = tested on: HL-60
SNB-78 = tested on: SNB-78
SK-MEL-2 = tested on: SK-MEL-2
DLD-1 = tested on: DLD-1
COLO 205 = tested on: COLO 205
U-251 = tested on: U-251
OVCAR-5 = tested on: OVCAR-5
HCT-116 = tested on: HCT-116
KM-20L2 = tested on: KM-20L2
SNB-19 = tested on: SNB-19
786-0 = tested on: 786-0
OVCAR-3 = tested on: OVCAR-3
HOP-92 = tested on: HOP-92
SF-295 = tested on: SF-295
IGROV-1 = tested on: IGROV-1
UACC-257 = tested on: UACC-257

## CCN1/C(=C/C(C)=C/c2sc3ccccc3[n+]2CC)Sc2ccccc21
UACC-62
  GI50: 92.7 nM (active)
CAKI-1
  GI50: 203 nM (active)
RXF 393
  GI50: 273 nM (active)
LOX IMVI
  GI50: 135 nM (active)
NCI-H460
  GI50: 62.1 nM (active)
XF498
  GI50: 76.2 nM (active)
SK-MEL-5
  GI50: 92.5 nM (active)
SF-268
  GI50: 447 nM (active)
K562
  GI50: 34 nM (active)
A549
  GI50: 84.3 nM (active)
LXFL 529
  GI50: 33.1 nM (active)
OVCAR-8
  GI50: 94.8 nM (active)
RPMI-8226
  GI50: 22.3 nM (active)
UO-31
  GI50: 81.1 nM (active)
M19-MEL
  GI50: 173 nM (active)
NCI-H226
  GI50: 62.5 nM (active)
ACHN
  GI50: 295 nM (active)
SF-539
  GI50: 265 nM (active)
SNB-75
  GI50: 239 nM (active)
MOLT-4
  GI50: 63.7 nM (active)
M14
  GI50: 212 nM (active)
SN12C
  GI50: 234 nM (active)
SW-620
  GI50: 122 nM (active)
HCC 2998
  GI50: 255 nM (active)
HOP-62
  GI50: 122 nM (active)
TK-10
  GI50: 324 nM (active)
SR
  GI50: 181 nM (active)
CCRF-CEM
  GI50: 26.1 nM (active)
NCI-H522
  GI50: 57.4 nM (active)
KM12
  GI50: 64.1 nM (active)
HCT-15
  GI50: 395 nM
EKVX
  GI50: 88.5 nM (active)
DMS-273
  GI50: 64 nM (active)
SK-OV-3
  GI50: 76.9 nM (active)
A498
  GI50: 381 nM (active)
HT-29
  GI50: 307 nM (active)
OVCAR-4
  GI50: 361 nM (active)
Malme-3M
  GI50: 370 nM (active)
DMS-114
  GI50: 82 nM (active)
SK-MEL-28
  GI50: 28.5 nM (active)
NCI-H23
  GI50: 41.5 nM (active)
HL-60
  GI50: 40.5 nM (active)
SNB-78
  GI50: 340 nM (active)
SK-MEL-2
  GI50: 201 nM (active)
DLD-1
  GI50: 207 nM (active)
COLO 205
  GI50: 142 nM (active)
U-251
  GI50: 37.8 nM (active)
OVCAR-5
  GI50: 431 nM (active)
HCT-116
  GI50: 48.5 nM (active)
KM-20L2
  GI50: 191 nM (active)
SNB-19
  GI50: 21.4 nM (active)
786-0
  GI50: 418 nM (active)
OVCAR-3
  GI50: 172 nM (active)
HOP-92
  GI50: < 10 nM (active)
SF-295
  GI50: 112 nM (active)
IGROV-1
  GI50: 279 nM (active)

## CC1(C)OC[C@H](C(=N)OCc2ccccc2)O1
UACC-62
  GI50: > 100000 nM (inactive)
CAKI-1
  GI50: > 100000 nM (inactive)
RXF 393
  GI50: > 100000 nM (inactive)
UACC-257
  GI50: > 100000 nM (inactive)
NCI-H460
  GI50: > 100000 nM (inactive)
XF498
  GI50: > 100000 nM (inactive)
SK-MEL-5
  GI50: > 100000 nM (inactive)
SF-268
  GI50: > 100000 nM (inactive)
K562
  GI50: > 100000 nM (inactive)
A549
  GI50: > 100000 nM (inactive)
LXFL 529
  GI50: > 100000 nM (inactive)
OVCAR-8
  GI50: > 100000 nM (inactive)
RPMI-8226
  GI50: > 100000 nM (inactive)
UO-31
  GI50: > 100000 nM (inactive)
M19-MEL
  GI50: > 100000 nM (inactive)
NCI-H226
  GI50: 19300 nM (inactive)
ACHN
  GI50: > 100000 nM (inactive)
SF-539
  GI50: > 100000 nM (inactive)
SNB-75
  GI50: > 100000 nM (inactive)
MOLT-4
  GI50: > 100000 nM (inactive)
M14
  GI50: > 100000 nM (inactive)
SN12C
  GI50: > 100000 nM (inactive)
SW-620
  GI50: > 100000 nM (inactive)
HCC 2998
  GI50: > 100000 nM (inactive)
HOP-62
  GI50: > 100000 nM (inactive)
TK-10
  GI50: > 100000 nM (inactive)
SR
  GI50: > 100000 nM (inactive)
CCRF-CEM
  GI50: > 100000 nM (inactive)
NCI-H522
  GI50: > 100000 nM (inactive)
KM12
  GI50: > 100000 nM (inactive)
HCT-15
  GI50: > 100000 nM
EKVX
  GI50: > 100000 nM (inactive)
DMS-273
  GI50: > 100000 nM (inactive)
SK-OV-3
  GI50: > 100000 nM (inactive)
A498
  GI50: > 100000 nM (inactive)
HT-29
  GI50: > 100000 nM (inactive)
OVCAR-4
  GI50: > 100000 nM (inactive)
Malme-3M
  GI50: > 100000 nM (inactive)
DMS-114
  GI50: > 100000 nM (inactive)
SK-MEL-28
  GI50: > 100000 nM (inactive)
NCI-H23
  GI50: > 100000 nM (inactive)
HL-60
  GI50: > 100000 nM (inactive)
SNB-78
  GI50: > 100000 nM (inactive)
SK-MEL-2
  GI50: > 100000 nM (inactive)
DLD-1
  GI50: > 100000 nM (inactive)
COLO 205
  GI50: > 100000 nM (inactive)
U-251
  GI50: > 100000 nM (inactive)
OVCAR-5
  GI50: > 100000 nM (inactive)
HCT-116
  GI50: > 100000 nM (inactive)
KM-20L2
  GI50: > 100000 nM (inactive)
SNB-19
  GI50: > 100000 nM (inactive)
OVCAR-3
  GI50: > 100000 nM (inactive)
HOP-92
  GI50: > 100000 nM (inactive)
SF-295
  GI50: > 100000 nM (inactive)
IGROV-1
  GI50: > 100000 nM (inactive)
